Compound: CN1CCN(CC1)C2=CC(=C(C=C2)NC3=NC(=C(S3)C(=O)C4=C(C=CC=C4Cl)Cl)N)OC [XMD14-99] + COc1cc2c(Oc3ccc(NC(=O)C4(C(=O)Nc5ccc(F)cc5)CC4)cc3F)ccnc2cc1OCCCN1CCOCC1 [Foretinib] (partner 0.25 µM)
Experiment: relative viability (nuclei count vs DMSO), 5 days (fraction); higher = more cells survive
Settings: first compound 8 µM
In short: (§1)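 For relative viability, nuclei counts in treated wells were divided by those in vehicle wells. Lung cancer cell lines had been pin-tool dosed in 1536-well plates the day after seeding and cultured for 5 days, then fixed and stained in one step (final 0.05% Triton X-100, 1% formaldehyde, 1 ug/ml Hoechst) and imaged at 4×. Doses were one drug alone or a fixed anchor-drug dose plus five library-drug doses (not always all listed) in √10 steps, and values are duplicate-plate medians.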

Cell Line	relative viability
HARA	0.757
NCI-H2023	0.698
NCI-H520	0.501
SW 1573	0.824
NCI-H1299	0.949
NCI-H1563	0.74
SK-LU-1	0.477
NCI-H661	0.681

Compound: N[C@@H]1CCCN(c2c(/C=C3\SC(=O)NC3=O)cccc2-c2ccccc2)C1 [AZD1208] + Cc1nc(NC(=O)N2CCC[C@H]2C(N)=O)sc1-c1ccnc(C(C)(C)C(F)(F)F)c1 [Alpelisib] (partner 2 µM)
Experiment: as above
Settings: first compound 0.08 µM
In short: as §1

Cell Line	relative viability
NCI-H838	0.962
EBC-1	0.783
NCI-H1703	0.338
NCI-H2009	1.13
PC-14	0.928
LCLC-103H	0.904
NCI-H596	0.387
NCI-H2228	0.706
EMC-BAC-2	0.752
NCI-H2087	1.04
Calu-6	0.993
HCC-366	0.453
NCI-H1666	0.815
NCI-H647	1.03
LK-2	0.85
NCI-H2126	0.703
SK-MES-1	0.697
H3255	0.662
COR-L23	0.735

Cell Line	relative viability
COR-L 105	1.06
IA-LM	0.83
LOU-NH91	0.72
NCI-H2170	0.747
NCI-H3122	0.686
HOP-62	1.04
HCC-44	0.722
A549	0.676
LU99A	0.497
BEN	0.876
HARA	0.747
NCI-H2023	0.512
NCI-H520	0.848
SW 1573	0.65
NCI-H1299	1.08
NCI-H1792	0.629
NCI-H1563	0.898
SK-LU-1	0.792
NCI-H661	0.706

Same assay, conditions: first compound 0.253 µM

Cell Line	relative viability
NCI-H838	1.13
EBC-1	0.806
NCI-H1703	0.302
NCI-H2009	1.17
NCI-H1993	0.608
PC-14	1
LCLC-103H	0.985
NCI-H596	0.573
NCI-H2228	0.629
EMC-BAC-2	0.74
NCI-H2087	1.03
Calu-6	1.03
HCC-366	0.362
NCI-H1666	0.821
NCI-H647	1.28
LK-2	0.759
NCI-H2126	0.724
SK-MES-1	0.856
H3255	0.702
COR-L23	0.64

Cell Line	relative viability
COR-L 105	0.94
IA-LM	0.617
LOU-NH91	0.719
NCI-H2170	0.8
NCI-H3122	0.68
HOP-62	0.919
HCC-44	0.854
A549	0.622
LU99A	0.481
BEN	1.1
HARA	0.794
NCI-H2023	0.448
NCI-H520	0.805
SW 1573	0.705
NCI-H1299	1.08
NCI-H1792	0.742
NCI-H1563	0.826
SK-LU-1	0.913
NCI-H661	0.815

Same assay, conditions: first compound 0.8 µM

Cell Line	relative viability
NCI-H838	0.887
EBC-1	0.885
NCI-H1703	0.301
NCI-H2009	1.07
NCI-H1993	0.683
PC-14	0.956
LCLC-103H	0.863
NCI-H596	0.351
NCI-H2228	0.609
EMC-BAC-2	0.636
NCI-H2087	1.09
Calu-6	0.889
HCC-366	0.337
NCI-H1666	0.577
NCI-H647	1.06
LK-2	0.618
NCI-H2126	0.652
SK-MES-1	0.628
H3255	0.639
COR-L23	0.715

Cell Line	relative viability
COR-L 105	0.763
IA-LM	0.826
LOU-NH91	0.632
NCI-H2170	0.707
NCI-H3122	0.647
HOP-62	0.82
HCC-44	0.744
A549	0.48
LU99A	0.462
BEN	0.704
HARA	0.671
NCI-H2023	0.396
NCI-H520	0.641
SW 1573	0.595
NCI-H1299	1.07
NCI-H1792	0.579
NCI-H1563	0.954
SK-LU-1	0.979
NCI-H661	0.529

Same assay, conditions: first compound 2.53 µM

Cell Line	relative viability
NCI-H838	0.959
EBC-1	0.75
NCI-H1703	0.31
NCI-H2009	1.13
NCI-H1993	0.737
PC-14	0.917
LCLC-103H	0.884
NCI-H596	0.376
EMC-BAC-2	0.701
NCI-H2087	1.13
Calu-6	0.918
HCC-366	0.27
NCI-H1666	0.765
NCI-H647	1.06
LK-2	0.567
NCI-H2126	0.642
SK-MES-1	0.704
H3255	0.567
COR-L23	0.721

Cell Line	relative viability
COR-L 105	1.06
IA-LM	0.837
LOU-NH91	0.681
NCI-H2170	0.567
NCI-H3122	0.583
HOP-62	0.764
HCC-44	0.695
A549	0.687
LU99A	0.429
BEN	0.673
HARA	0.754
NCI-H2023	0.461
NCI-H520	0.896
SW 1573	0.505
NCI-H1299	1.03
NCI-H1792	0.608
NCI-H1563	0.951
SK-LU-1	0.9
NCI-H661	0.724

Same assay, conditions: first compound 8 µM

Cell Line	relative viability
NCI-H838	0.882
EBC-1	0.817
NCI-H1703	0.287
NCI-H2009	1.13
NCI-H1993	0.63
PC-14	0.931
LCLC-103H	0.774
NCI-H596	0.353
NCI-H2228	0.466
EMC-BAC-2	0.62
NCI-H2087	0.963
Calu-6	0.818
HCC-366	0.227
NCI-H1666	0.894
NCI-H647	1.01
LK-2	0.477
NCI-H2126	0.624
SK-MES-1	0.683
H3255	0.615
COR-L23	0.657

Cell Line	relative viability
COR-L 105	0.807
IA-LM	0.569
LOU-NH91	0.673
NCI-H2170	0.52
NCI-H3122	0.722
HOP-62	0.896
HCC-44	0.626
A549	0.448
LU99A	0.345
BEN	0.507
HARA	0.747
NCI-H2023	0.45
NCI-H520	0.802
SW 1573	0.592
NCI-H1299	1.13
NCI-H1792	0.535
NCI-H1563	0.834
SK-LU-1	0.76
NCI-H661	0.665

Compound: CN1CCN(CC1)C2=CC(=C(C=C2)NC3=NC(=C(S3)C(=O)C4=C(C=CC=C4Cl)Cl)N)OC [XMD14-99] + NC(=O)Nc1cc(-c2cccc(F)c2)sc1C(=O)N[C@H]1CCCNC1 [AZD7762] (partner 0.2 µM)
Experiment: as above
Settings: first compound 0.08 µM
In short: as §1

Cell Line	relative viability
NCI-H522	0.693
NCI-H838	0.91
NCI-H1703	0.0933
NCI-H1993	0.879
PC-14	0.37
LCLC-103H	0.804
NCI-H596	1.16
EMC-BAC-2	1.15
NCI-H2087	1.26
HCC-366	0.237
NCI-H1666	0.858
NCI-H647	0.506
LK-2	0.375
NCI-H2126	0.979
NCI-H2342	0.55
H3255	0.854
LOU-NH91	0.785
ChaGo-K-1	0.844
NCI-H2170	0.787
NCI-H3122	0.978
HOP-62	0.489
HCC-44	1.05
SW 900	0.633
LU99A	0.3
BEN	0.594
HARA	0.334
NCI-H1648	0.715
NCI-H1792	0.822

Same assay, conditions: first compound 0.8 µM

Cell Line	relative viability
NCI-H522	1.01
NCI-H838	0.952
NCI-H1703	0.124
NCI-H1993	0.702
PC-14	0.416
LCLC-103H	0.837
NCI-H596	1.01
EMC-BAC-2	1.11
NCI-H2087	1.14
HCC-366	0.215
NCI-H1666	0.801
NCI-H647	0.472
LK-2	0.41
NCI-H2126	0.984
NCI-H2342	0.502
H3255	0.777
LOU-NH91	0.814
ChaGo-K-1	0.901
NCI-H2170	0.928
NCI-H3122	0.893
HOP-62	0.57
HCC-44	1.04
SW 900	0.681
LU99A	0.227
BEN	0.736
HARA	0.261
NCI-H1648	0.625
NCI-H1792	0.556

Same assay, conditions: first compound 2.53 µM

Cell Line	relative viability
NCI-H522	0.806
NCI-H838	0.975
NCI-H1703	0.143
NCI-H1993	0.82
PC-14	0.36
LCLC-103H	0.781
NCI-H596	1.29
EMC-BAC-2	1.08
NCI-H2087	1.04
HCC-366	0.251
NCI-H1666	0.731
NCI-H647	0.433
LK-2	0.354
NCI-H2126	1.05
NCI-H2342	0.583
H3255	0.75
LOU-NH91	0.714
ChaGo-K-1	0.826
NCI-H2170	0.875
NCI-H3122	0.936
HOP-62	0.726
HCC-44	0.993
SW 900	0.71
LU99A	0.31
BEN	0.596
HARA	0.237
NCI-H1648	0.672
NCI-H1792	0.599

Same assay, conditions: first compound 8 µM

Cell Line	relative viability
NCI-H522	0.924
NCI-H838	0.897
NCI-H1703	0.118
NCI-H1993	0.593
PC-14	0.309
LCLC-103H	0.681
NCI-H596	1.15
EMC-BAC-2	0.835
NCI-H2087	0.764
HCC-366	0.187
NCI-H1666	0.736
NCI-H647	0.335
LK-2	0.235
NCI-H2126	0.942
NCI-H2342	0.458
H3255	0.586
LOU-NH91	0.675
ChaGo-K-1	0.825
NCI-H2170	0.702
NCI-H3122	0.555
HOP-62	0.513
HCC-44	0.981
SW 900	0.548
LU99A	0.235
BEN	0.514
HARA	0.217
NCI-H1648	0.581
NCI-H1792	0.305
